Patent publication US20050004126A1 (priority 2001, published 2005)
Like-named read-outs stand apart in the source and are kept apart here.

Tests used:
[1] = target: T1, MMP-1FL (full-length interstitial collagenase) (Homo sapiens, UniProt P03956); experiment: Thiopeptolide hydrolysis assay, MMP-1; format: biochemical; details: read-out: MMP01 IC50
T1 sequence (P03956 100-469): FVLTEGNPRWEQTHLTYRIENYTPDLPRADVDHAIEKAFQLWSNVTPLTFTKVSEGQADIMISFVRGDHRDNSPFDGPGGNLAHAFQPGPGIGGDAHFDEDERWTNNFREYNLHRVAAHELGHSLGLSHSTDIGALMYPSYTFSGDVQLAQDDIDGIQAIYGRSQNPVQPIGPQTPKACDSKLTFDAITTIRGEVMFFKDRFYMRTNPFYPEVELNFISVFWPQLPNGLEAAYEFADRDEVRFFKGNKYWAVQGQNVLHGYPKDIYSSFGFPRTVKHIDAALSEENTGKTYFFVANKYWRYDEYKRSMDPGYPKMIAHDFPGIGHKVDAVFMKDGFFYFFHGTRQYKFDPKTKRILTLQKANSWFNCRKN
Procedure: (§1) They measure the amount by which a test compound reduces the hydrolysis of a thiopeptolide substrate caused by a matrix metalloproteinase enzyme.
Thiopeptolide substrates show virtually no decomposition or hydrolysis in the absence of a matrix metalloproteinase enzyme. A typical thiopeptolide substrate commonly utilized for assays is Ac-Pro-Leu-Gly-thioester-Leu-Leu-Gly-OEt. A 100 μL assay mixture will contain 50 mM of 2-morpholinoethane sulfonic acid monohydrate (MES, pH 6.0) 10 mM CaCl2, 100 μM thiopeptolide substrate, and 1 mM 5,5′-dithio-bis-(2-nitro-benzoic acid) (DTNB). […] The change in absorbance at 405 nm is monitored on a Thermo Max microplate reader (moleucular Devices, Menlo Park, Calif.) at room temperature (22° C.). […] Assays are carried out with and without matrix metalloproteinase inhibitor compounds, and the amount of hydrolysis is compared for a determination of inhibitory activity of the test compounds.

[2] = target: MMP-3CD (catalytic domain of stromelysin) (Homo sapiens, UniProt P08254); experiment: Thiopeptolide hydrolysis assay, MMP-3; format: biochemical; details: read-out: MMP03 IC50;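 further: inhibition of thiopeptolide substrate (100 µM) cleavage by the MMP-3 catalytic domain, detected with DTNB at pH 6.0 with CaCl2, hydrolysis compared against runs lacking inhibitor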
MMP-3CD (catalytic domain of stromelysin), sequence (P08254 100-272 limits assumed): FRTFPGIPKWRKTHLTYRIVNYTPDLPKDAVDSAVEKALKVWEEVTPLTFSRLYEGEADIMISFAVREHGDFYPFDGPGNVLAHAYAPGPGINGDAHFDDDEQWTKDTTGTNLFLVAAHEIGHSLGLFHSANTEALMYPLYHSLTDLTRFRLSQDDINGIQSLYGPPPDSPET
Procedure: as §1
Thiopeptolide substrates show virtually no decomposition or hydrolysis in the absence of a matrix metalloproteinase enzyme. A typical thiopeptolide substrate commonly utilized for assays is Ac-Pro-Leu-Gly-thioester-Leu-Leu-Gly-OEt. A 100 μL assay mixture will contain 50 mM of 2-morpholinoethane sulfonic acid monohydrate (MES, pH 6.0) 10 mM CaCl2, 100 μM thiopeptolide substrate, and 1 mM 5,5′-dithio-bis-(2-nitro-benzoic acid) (DTNB). […] Assays are carried out with and without matrix metalloproteinase inhibitor compounds, and the amount of hydrolysis is compared for a determination of inhibitory activity of the test compounds.

[3] = target: MMP-13CD (catalytic domain of collagenase 3) (Homo sapiens, UniProt P45452); experiment: Thiopeptolide hydrolysis assay, MMP-13;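 further: inhibition of enzymatic thiopeptolide substrate cleavage (100 µM) in pH 6.0 MES buffer with CaCl2 and DTNB, comparing hydrolysis with versus without inhibitor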

Structure (SMILES) | IC50 ([1]; Table 1b) [µM] | IC50 ([2]; Table 1b) [µM] | IC50 ([3]; MMP13 IC50 (μM), Table 1b) [µM] | IC50 ([1]; Table II) [µM] | IC50 ([3]; MMP13 IC50 (nM), Table II) [µM] | IC50 ([2]; Table II) [µM]
COc1ccc(C(=O)OCc2ccc3nsnc3c2)cc1C(=O)OCc1ccc2nsnc2c1 |  |  |  | 30 |  | 
COC(=O)c1ccc(Cn2c(=O)c(C)c3sc(C(=O)NCc4ccc(F)cc4)cn3c2=O)cc1OC | > 30 |  | 0.099 |  |  | 
Cc1c(=O)n(Cc2ccc(C(=O)OCCN(C)C)cc2)c(=O)n2cc(C(=O)NCc3ccc(F)cc3)sc12 | > 100 | > 30 | 0.094 |  |  | 
COC(=O)c1ccc(Cn2c(=O)c(C)c3sc(C(=O)NCc4ccc(F)cc4)cn3c2=O)cc1C | > 100 | 18 | 0.018 |  |  | 
CC#CCn1c(=O)c(C)c2sc(C(=O)NCc3ccc(F)cc3)cn2c1=O | > 100 | > 30 | 0.315 |  |  | 
Cc1c(=O)n(Cc2ccc(Cl)cc2)c(=O)n2cc(C(=O)NCc3ccncc3)sc12 | > 30 | > 30 | 0.053 |  |  | 
Cc1c(=O)n(Cc2ccc3cc(F)ccc3n2)c(=O)n2cc(C(=O)NCc3ccc(F)cc3)sc12 | > 30 | 18 | 0.086 |  |  | 
Cc1nc(Cn2c(=O)c(C)c3sc(C(=O)NCc4ccc(F)cc4)cn3c2=O)cs1 | > 100 | > 30 | 0.77 |  |  | 
Cc1c(=O)n(Cc2ccc(C(=O)N3CCOCC3)cc2)c(=O)n2cc(C(=O)NCc3ccc(F)cc3)sc12 | > 30 | > 30 | 0.011 |  |  | 
O=C(OCc1ccc2nsnc2c1)c1cccc(C(=O)OCc2ccc3nsnc3c2)c1 |  |  |  | > 100 |  | > 30
O=C(O)c1ccc(COC(=O)c2cccc(C(=O)NCc3ccc4c(c3)OCO4)c2)cc1 |  |  |  | > 100 | 0.033 | 
CC(C)Oc1ccc(C(=O)NCc2ccc3c(c2)OCO3)cc1C(=O)NCc1ccc2c(c1)OCO2 |  |  |  | 71 | 3.75 | 
COC(=O)Nc1cc(Cn2c(=O)c(C)c3sc(C(=O)NCc4ccc(F)cc4)cn3c2=O)on1 | > 30 | > 30 | 0.205 |  |  | 
COc1ccc(CNC(=O)c2ccc(OC)c(C(=O)NCc3ccc(OC)cc3)c2)cc1 [4-Methoxy-N,N′-bis-(4-methoxybenzyl)-isophthalamide] [listing 1 of 2 here] |  |  |  |  | 0.25 | 82
COc1ccc(CNC(=O)c2ccc(OC)c(C(=O)NCc3ccc(OC)cc3)c2)cc1 [4-Methoxy-N,N′-bis-(4-methoxybenzyl)-isophthalamide] [listing 2 of 2 here] |  |  |  | > 100 |  | 

Continued, in another order:

IC50 ([1]; Table 1b) [µM] | IC50 ([2]; Table 1b) [µM] | IC50 ([3]; MMP13 IC50 (μM), Table 1b) [µM] | IC50 ([1]; Table II) [µM] | IC50 ([3]; MMP13 IC50 (nM), Table II) [µM] | Structure (SMILES) | IC50 ([2]; Table II) [µM]
> 30 | > 30 | 0.24 |  |  | COC(=O)c1ccc(Cn2c(=O)c(C)c3sc(C(=O)NCc4ccc(F)cc4)cn3c2=O)cc1Cl | 
> 30 | > 30 | 6.7 |  |  | O=C(NCc1ccccc1)c1cn2c(=O)n(C(=O)c3ccccc3)c(=O)cc2s1 | 
> 30 |  | 0.0046 |  |  | Cc1c(=O)n(Cc2ccccc2)c(=O)n2cc(C(=O)NCc3ccc4nsnc4c3)sc12 | 
> 30 | > 30 | 0.293 |  |  | O=C(NCc1ccccc1)c1cn2c(=O)n(Cc3ccc(Cl)c(Cl)c3)c(=O)cc2s1 | 
> 30 | 43 | 0.415 |  |  | O=C(NCc1ccccc1)c1cn2c(=O)n(Cc3ccc(Cl)cc3)c(=O)cc2s1 | 
> 30 | > 30 | 0.012 |  |  | Cc1c(=O)n(Cc2ccc3oc(=O)ccc3c2)c(=O)n2cc(C(=O)NCc3ccc(F)cc3)sc12 | 
> 100 | 16 | 0.0009 |  |  | Cc1c(=O)n(Cc2ccc(-c3nn[nH]n3)cc2)c(=O)n2cc(C(=O)NCc3ccc(F)cc3)sc12 | 
